Laboratory results: the supplement of paper PMC10307832

Key:
Experiment in all cases: relative viability (nuclei count vs DMSO), 5 days (fraction); higher = more cells survive
[1] = compound: C/C(=N\NC(=S)N1CCC1)/C2=CC=CC=N2 + CC(=O)c1c(C)c2cnc(Nc3ccc(N4CCNCC4)cn3)nc2n(C2CCCC2)c1=O [Palbociclib] (partner 0.5 µM)
Outline: (§1)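 The day after seeding in 1536-well plates, lung cancer cell lines were treated by pin tool with a single drug, or with a fixed anchor-drug dose together with five library-drug doses (not always all listed) in √10 steps. After 5 days, a combined fix-and-stain solution (final 0.05% Triton X-100, 1% formaldehyde, 1 ug/ml Hoechst) was added. Nuclei counted on 4× images gave relative viability as treated counts over vehicle counts, reported as the median of duplicate plates.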

[2] = compound: C/C(=N\NC(=S)N1CCC1)/C2=CC=CC=N2 + C[C@@H](Oc1cc(-c2cnn(C3CCNCC3)c2)cnc1N)c1c(Cl)ccc(F)c1Cl [Crizotinib] (partner 1 µM)
Outline: as §1

[3] = compound: C/C(=N\NC(=S)N1CCC1)/C2=CC=CC=N2 + NC(=O)Nc1cc(-c2cccc(F)c2)sc1C(=O)N[C@H]1CCCNC1 [AZD7762] (partner 0.2 µM)
Outline: as §1

[4] = compound: C/C(=N\NC(=S)N1CCC1)/C2=CC=CC=N2 + O=C(CCCCCCC(=O)Nc1ccccc1)NO [Vorinostat] (partner 1 µM)
Outline: as §1

Row | Cell Line | relative viability ([1]; first compound 0.05 µM) | relative viability ([1]; first compound 0.1581 µM) | relative viability ([1]; first compound 0.5 µM) | relative viability ([1]; first compound 1.581 µM) | relative viability ([1]; first compound 5 µM) | relative viability ([2]; first compound 0.05 µM) | relative viability ([2]; first compound 0.1581 µM) | relative viability ([2]; first compound 0.5 µM) | relative viability ([2]; first compound 1.581 µM) | relative viability ([2]; first compound 5 µM) | relative viability ([3]; first compound 0.05 µM) | relative viability ([3]; first compound 0.1581 µM) | relative viability ([3]; first compound 0.5 µM) | relative viability ([3]; first compound 1.581 µM) | relative viability ([3]; first compound 5 µM) | relative viability ([4]; first compound 0.05 µM) | relative viability ([4]; first compound 0.1581 µM) | relative viability ([4]; first compound 0.5 µM) | relative viability ([4]; first compound 1.581 µM) | relative viability ([4]; first compound 5 µM)
1 | NCI-H647 | 0.0551 | 0.0636 | 0.0877 | 0.0726 | 0.0666 | 0.202 | 0.122 | 0.162 | 0.096 | 0.104 | 0.0396 | 0.0606 | 0.048 | 0.0361 | 0.0379 | 0.115 | 0.0948 | 0.106 | 0.0935 | 0.102
2 | NCI-H650 | 0.143 | 0.197 | 0.146 | 0.144 | 0.128 | 0.187 | 0.195 | 0.221 | 0.146 | 0.171 | 0.225 | 0.209 | 0.199 | 0.223 | 0.143 | 0.152 | 0.163 | 0.152 | 0.177 | 0.139
3 | NCI-H727 | 0.346 | 0.393 | 0.363 | 0.314 | 0.439 | 0.193 | 0.145 | 0.138 | 0.179 | 0.157 | 0.265 | 0.249 | 0.311 | 0.228 | 0.312 | 0.298 | 0.327 | 0.299 | 0.311 | 0.304
4 | NCI-H838 | 0.161 | 0.165 | 0.158 | 0.129 | 0.13 | 0.174 | 0.175 | 0.19 | 0.18 | 0.15 | 0.579 | 0.684 | 0.653 | 0.616 | 0.637 | 0.286 | 0.266 | 0.249 | 0.17 | 0.178
5 | NCI-H1355 | 0.171 | 0.167 | 0.165 | 0.148 | 0.154 | 0.318 | 0.63 | 0.189 | 0.151 | 0.172 | 0.168 | 0.17 | 0.135 | 0.146 | 0.155 | 0.165 | 0.174 | 0.148 | 0.171 | 0.144
6 | NCI-H1437 | 0.183 | 0.175 | 0.163 | 0.129 | 0.111 | 0.138 | 0.133 | 0.128 | 0.129 | 0.0811 | 0.353 | 0.278 | 0.243 | 0.239 | 0.176 | 0.32 | 0.334 | 0.251 | 0.218 | 0.188
7 | NCI-H1651 | 0.159 | 0.134 | 0.129 | 0.0856 | 0.0851 | 0.148 | 0.132 | 0.129 | 0.112 | 0.126 | 0.0886 | 0.101 | 0.0929 | 0.0496 | 0.0554 | 0.116 | 0.116 | 0.109 | 0.0595 | 0.0665
8 | NCI-H1666 | 0.617 | 0.608 | 0.564 | 0.495 | 0.509 | 0.204 | 0.221 | 0.216 | 0.195 | 0.207 | 0.304 | 0.398 | 0.352 | 0.3 | 0.331 | 0.575 | 0.579 | 0.538 | 0.501 | 0.494
9 | NCI-H1734 | 0.14 | 0.132 | 0.169 | 0.131 | 0.129 | 0.202 | 0.175 | 0.156 | 0.118 | 0.121 | 0.124 | 0.128 | 0.139 | 0.0896 | 0.101 | 0.169 | 0.174 | 0.145 | 0.12 | 0.124
10 | NCI-H1755 | 0.407 | 0.452 | 0.33 | 0.294 | 0.303 | 0.753 | 0.664 | 0.16 | 0.174 | 0.176 | 0.357 | 0.262 | 0.253 | 0.256 | 0.292 | 0.294 | 0.226 | 0.223 | 0.233 | 0.225
11 | NCI-H1915 | 0.166 | 0.159 | 0.138 | 0.12 | 0.124 | 0.469 | 0.843 | 0.169 | 0.152 | 0.134 | 0.16 | 0.114 | 0.134 | 0.119 | 0.122 | 0.108 | 0.0989 | 0.117 | 0.11 | 0.118
12 | NCI-H1944 | 0.253 | 0.3 | 0.166 | 0.148 | 0.129 | 0.737 | 0.909 | 0.221 | 0.164 | 0.149 | 0.227 | 0.169 | 0.145 | 0.102 | 0.129 | 0.17 | 0.154 | 0.137 | 0.126 | 0.135
13 | NCI-H1975 | 0.105 | 0.106 | 0.105 | 0.11 | 0.131 | 0.177 | 0.144 | 0.159 | 0.143 | 0.156 | 0.308 | 0.239 | 0.225 | 0.234 | 0.24 | 0.173 | 0.167 | 0.136 | 0.154 | 0.167
